{"source": "ChEMBL document CHEMBL1201862", "about": "“PubChem BioAssay data set” (2004)", "key": {"[1]": {"assay": "NIH-3T3 fibroblast cytotoxicity, dose response, cytotoxicity control, cell-based, fluorescence, Alamar Blue, secondary assay (AID 2327);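 note: NIH-3T3 mouse fibroblasts cultured with fluconazole at 8 µg/mL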", "type": "functional"}, "[2]": {"assay": "fluconazole-exposed Candida albicans growth modulators – fluorescence, retest, confirmation (AID 2467)", "type": "functional, cell-based"}, "[3]": {"biological_target": "T1, Serine/threonine-protein phosphatase (Candida dubliniensis (strain CD36 / CBS 7987 / NCPF 3949 / NRRLY-17841) (Yeast), UniProt B9W6M3)", "T1 sequence (B9W6M3 whole entry)": "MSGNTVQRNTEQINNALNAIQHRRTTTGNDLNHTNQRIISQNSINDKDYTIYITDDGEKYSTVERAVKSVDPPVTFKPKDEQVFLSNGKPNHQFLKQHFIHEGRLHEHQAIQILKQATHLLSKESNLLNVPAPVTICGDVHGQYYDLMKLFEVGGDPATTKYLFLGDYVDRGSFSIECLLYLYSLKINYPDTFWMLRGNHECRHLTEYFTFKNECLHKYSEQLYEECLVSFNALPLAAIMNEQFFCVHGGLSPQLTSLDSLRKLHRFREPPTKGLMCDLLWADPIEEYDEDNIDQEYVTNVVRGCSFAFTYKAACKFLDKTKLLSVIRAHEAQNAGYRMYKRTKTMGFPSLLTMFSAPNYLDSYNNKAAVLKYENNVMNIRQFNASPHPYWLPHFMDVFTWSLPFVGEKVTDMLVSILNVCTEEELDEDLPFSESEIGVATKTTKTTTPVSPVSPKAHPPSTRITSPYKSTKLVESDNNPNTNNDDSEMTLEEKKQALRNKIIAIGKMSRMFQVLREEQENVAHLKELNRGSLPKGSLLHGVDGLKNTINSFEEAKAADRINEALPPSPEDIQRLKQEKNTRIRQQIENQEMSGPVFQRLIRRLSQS", "assay": "blockers of CaCl2-induced CDRE-lacZ signaling – S. cerevisiae, luminescence, secondary, dose response (AID 2388);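 note: yeast reporter cells carrying a calcineurin-responsive lacZ construct stimulated with calcium chloride; luminescent beta-galactosidase reporter signal in whole cells rather than isolated phosphatase activity; potency for inhibition where a drop in reporter signal means calcineurin blockade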", "type": "functional, cell-based"}, "[4]": {"biological_target": "ATP-dependent molecular chaperone HSP82 (Candida albicans (strain WO-1) (Yeast), UniProt C4YTQ8)", "sequence (C4YTQ8 whole entry)": "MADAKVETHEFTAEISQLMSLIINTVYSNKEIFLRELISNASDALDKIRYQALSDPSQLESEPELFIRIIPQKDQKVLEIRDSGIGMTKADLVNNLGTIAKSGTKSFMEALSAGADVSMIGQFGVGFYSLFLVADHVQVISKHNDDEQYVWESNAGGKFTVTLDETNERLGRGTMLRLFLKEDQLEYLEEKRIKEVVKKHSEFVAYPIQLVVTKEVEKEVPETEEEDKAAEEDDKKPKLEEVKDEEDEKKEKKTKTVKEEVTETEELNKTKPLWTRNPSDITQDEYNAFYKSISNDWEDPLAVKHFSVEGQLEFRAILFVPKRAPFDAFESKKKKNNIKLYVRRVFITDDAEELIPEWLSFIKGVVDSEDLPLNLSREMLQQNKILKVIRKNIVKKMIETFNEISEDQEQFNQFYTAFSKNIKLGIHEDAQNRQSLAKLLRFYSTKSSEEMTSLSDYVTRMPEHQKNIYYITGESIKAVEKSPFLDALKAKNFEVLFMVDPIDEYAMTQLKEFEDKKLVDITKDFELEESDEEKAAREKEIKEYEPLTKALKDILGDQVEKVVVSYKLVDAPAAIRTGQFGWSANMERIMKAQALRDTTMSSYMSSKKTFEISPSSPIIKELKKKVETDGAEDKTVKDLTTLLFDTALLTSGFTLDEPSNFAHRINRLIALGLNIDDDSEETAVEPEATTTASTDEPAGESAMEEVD", "assay": "steroid-induced GRE reporter decrease in yeast – S. cerevisiae, luminescence, Hsp90 inhibitor project, dose response (AID 2400);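 note: beta-galactosidase luminescence from glucocorticoid response element reporter as proxy for Hsp90 function; inhibitor potency where signal loss means Hsp90 inhibition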", "type": "functional, cell-based"}, "[5]": {"biological_target": "Eukaryotic translation initiation factor 4E (Mus musculus, UniProt P63073)", "sequence (P63073 whole entry)": "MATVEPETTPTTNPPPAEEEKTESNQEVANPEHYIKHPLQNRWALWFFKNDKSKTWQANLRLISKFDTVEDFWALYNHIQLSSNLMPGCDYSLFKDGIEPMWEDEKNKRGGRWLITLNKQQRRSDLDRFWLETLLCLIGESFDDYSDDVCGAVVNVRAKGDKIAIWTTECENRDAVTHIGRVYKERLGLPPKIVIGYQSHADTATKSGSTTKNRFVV", "assay": "blockers of eIF4G binding by eIF4E – biochemical, TR-FRET, dose response (AID 855);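 note: potency for disrupting eIF4E binding to eIF4GI seen as loss of FRET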", "type": "functional"}, "Vero [6]": {"system": "Vero", "assay": "cells", "type": "functional, cell-based", "details": "Chlorocebus sabaeus"}, "Vero [7]": {"system": "Vero", "assay": "cells", "type": "functional", "details": "Chlorocebus sabaeus"}, "Cytochrome P450 2C9": {"biological_target": "Cytochrome P450 2C9 (Homo sapiens, UniProt P11712)", "sequence (P11712 whole entry)": "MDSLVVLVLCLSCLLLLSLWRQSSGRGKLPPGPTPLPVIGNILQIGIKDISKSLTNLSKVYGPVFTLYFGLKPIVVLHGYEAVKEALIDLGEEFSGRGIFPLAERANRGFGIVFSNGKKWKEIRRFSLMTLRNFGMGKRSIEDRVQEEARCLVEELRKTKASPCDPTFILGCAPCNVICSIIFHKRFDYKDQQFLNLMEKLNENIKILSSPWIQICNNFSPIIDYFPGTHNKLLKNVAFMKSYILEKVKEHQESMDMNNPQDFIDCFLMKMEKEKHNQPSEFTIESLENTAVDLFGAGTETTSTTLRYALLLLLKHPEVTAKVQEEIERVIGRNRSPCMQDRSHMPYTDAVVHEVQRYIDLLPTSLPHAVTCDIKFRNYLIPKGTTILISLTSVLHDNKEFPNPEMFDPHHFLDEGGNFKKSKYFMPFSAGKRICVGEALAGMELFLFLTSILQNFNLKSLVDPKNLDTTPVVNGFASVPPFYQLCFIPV"}, "[8]": {"system": "Streptococcus sp. 'group A'", "assay": "Streptococcus pyogenes SK(-)GAS viability under kanamycin – luminescence, BacTiterGlo, confirmation, counter-screen for streptokinase expression inhibitor project, dose response (AID 1900)", "type": "functional, organism-based"}, "Streptococcus": {"system": "Streptococcus", "assay": "GAS UMAA2166 growth inhibition – luminescence, BacTiterGlo, counter-screen for streptokinase expression inhibitor project, dose response (AID 1915);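 note: potency for reduction of bacterial viability or growth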", "type": "functional, organism-based"}, "[9]": {"biological_target": "T2, Probable nicotinate-nucleotide adenylyltransferase (Staphylococcus aureus (strain N315), UniProt P65502)", "T2 sequence (P65502 whole entry)": "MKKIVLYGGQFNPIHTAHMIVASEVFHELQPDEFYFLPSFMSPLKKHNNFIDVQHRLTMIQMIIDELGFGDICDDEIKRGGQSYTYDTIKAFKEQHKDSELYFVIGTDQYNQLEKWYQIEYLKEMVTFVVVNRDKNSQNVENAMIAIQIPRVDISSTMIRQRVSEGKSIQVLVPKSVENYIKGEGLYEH", "type": "functional, Staphylococcus aureus subsp. aureus N315"}, "[10]": {"biological_target": "T2, Probable nicotinate-nucleotide adenylyltransferase", "type": "functional, Staphylococcus aureus subsp. aureus N315", "details": "read-out: IC50_Mean"}, "[11]": {"assay": "activation of miR-122 Renilla sensor silencing – cell-based, Huh7 psiCHECK-miR122, Renilla luciferase, cherry-picked, dose response (AID 651956);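 note: huh7 hepatoma cells stably carrying a psiCHECK-2 miR-122 sensor plasmid; renilla luciferase signal reporting endogenous miR-122 activity after 48 h compound exposure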", "type": "functional"}, "[12]": {"assay": "reduction of Shn3 3'UTR-driven luciferase in osteoblasts – cell-based, Clone20 osteoblasts, firefly luciferase, cherry-picked, dose response (AID 624132)", "type": "functional"}, "[13]": {"assay": "non-specific 3'UTR reporter inhibition in Clone20-Shn3RL – cell-based, Renilla luciferase, cherry-picked, counter-screen for Shn3 inhibitor project, dose response (AID 624133)", "type": "functional"}, "[14]": {"assay": "Fluorescence-based cell-based high throughput dose response assay for inhibitors of the interaction of nucleotide-binding oligomerization domain containing 2 (NOD2) and the receptor-interacting serine-threonine kinase 2 (RIPK2).", "type": "functional", "details": "Homo sapiens"}, "Beta Lactamase": {"biological_target": "Beta Lactamase (Pseudomonas aeruginosa, UniProt Q932Y6)", "sequence (Q932Y6 whole entry)": "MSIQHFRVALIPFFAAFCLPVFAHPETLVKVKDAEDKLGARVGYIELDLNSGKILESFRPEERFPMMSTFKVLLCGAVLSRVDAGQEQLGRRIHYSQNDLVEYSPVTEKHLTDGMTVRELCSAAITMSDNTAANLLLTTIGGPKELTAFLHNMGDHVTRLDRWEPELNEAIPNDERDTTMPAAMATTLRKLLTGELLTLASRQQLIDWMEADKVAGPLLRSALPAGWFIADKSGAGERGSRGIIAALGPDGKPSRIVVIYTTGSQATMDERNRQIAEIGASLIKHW", "assay": "BLA reporter interference, concentration series – BLA reporter cells, FRET fluorescence, artefact control for NOD2-RIPK2 interaction inhibitor project, dose response (AID 651552)", "type": "functional, cell-based"}, "[15]": {"assay": "reduced cellular PGC1a acetyl-lysine signal – cell-based, cherry-picked samples, dose response (AID 720514);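 note: potency may reflect raised or lowered acetylation signal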", "type": "functional"}}, "note": "Active and inactive are the calls of the source.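 Throughout, for IC50 Mean: confirmatory dose-response retesting of NadD inhibitor hits first found in an ultra-high-throughput screen.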"}
{"smiles": "CN(C)S(=O)(=O)Oc1cccc(C(=O)Nc2cccc(Cl)c2)c1", "values": [{"measurement": "EC50", "setting": "[1]", "value": "> 150 µM (inactive)"}, {"measurement": "EC50", "setting": "[2]", "value": "2.39 µM (active)"}, {"measurement": "EC50", "setting": "[3]", "value": "> 180 µM (inactive)"}, {"measurement": "EC50", "setting": "[4]", "value": "24.7 µM (active)"}]}
{"smiles": "COc1ccccc1/C=C/C(=O)c1c(O)nc(C)c2c1CCCC2", "values": [{"measurement": "IC50", "setting": "[5]", "value": "50 µM (inactive)"}, {"measurement": "IC50", "setting": "Vero [6]", "value": "20.3 µM (active)"}, {"measurement": "CC50", "setting": "Vero [7]", "value": "> 25 µM (active)"}, {"measurement": "AC50", "setting": "Cytochrome P450 2C9", "value": "inconclusive"}]}
{"smiles": "COc1ccc(C2c3ccc4ccccc4c3Oc3ncn(CCN4CCOCC4)c(=N)c32)cc1", "note": "(configuration not stated)", "values": [{"measurement": "EC50", "setting": "[1]", "value": "> 160 µM (inactive)"}, {"measurement": "EC50", "setting": "[2]", "value": "1.9 µM (active)"}, {"measurement": "EC50", "setting": "[3]", "value": "> 180 µM (inactive)"}, {"measurement": "EC50", "setting": "[4]", "value": "> 160 µM (inactive)"}]}
{"smiles": "N=C1SC(c2ccccc2)C(=O)N1c1ncc(Cc2ccccc2Cl)s1", "note": "(configuration not stated)", "values": [{"measurement": "EC50", "setting": "[8]", "value": "0.249 µM (active)"}, {"measurement": "EC50", "setting": "Streptococcus", "value": "3.47 µM (active)"}, {"measurement": "IC50", "setting": "[9]", "value": "4.35 µM (active)"}, {"measurement": "IC50", "setting": "[10]", "value": "16 µM (active)"}]}
{"smiles": "COc1ccc(S(=O)(=O)Nc2cc(C)cc(C)n2)c2ccccc12", "values": [{"measurement": "AC50", "setting": "[11]", "value": "13.4 µM (active)"}]}
{"smiles": "COc1ccc(CC2NCC(O)C2OC(C)=O)cc1", "note": "(configuration not stated)", "values": [{"measurement": "AC50", "setting": "[12]", "value": "< 0.26 µM (active)"}, {"measurement": "AC50", "setting": "[13]", "value": "1.09 µM (active)"}, {"measurement": "IC50", "setting": "[14]", "value": "49.7 µM (inactive)"}, {"measurement": "IC50", "setting": "Beta Lactamase", "value": "49.7 µM (inactive)"}, {"measurement": "AC50", "setting": "[15]", "value": "0.308 µM (active)"}]}
